Measured values from US20230295234A1, “ANTIMICROBIAL PEPTIDOMIMETICS” (SPEXIS AG, priority 2020, published 2023).
Bridge positions count the residues as written; N and C are the ends. Square brackets hold non-standard residues; d marks the D form. Peptide text beside a SMILES is read from it. Gly(N-2-aminoethyl) = NCCNCC(=O)O; Gly(N(CH2)3NH2) = NCCCNCC(=O)O; Pen = CC(C)(S)[C@H](N)C(=O)O; dDab = NCC[C@@H](N)C(=O)O; Dab = NCC[C@H](N)C(=O)O; Nlys = NCCCCNCC(=O)O

Experiments:
[1] = test system: human red blood cells (hRBC); experiment: Hemolysis of human red blood cells; type: cell-based; conditions: red cells of human, 1 h
Summary of the method: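 PBS-washed human red blood cells (20% v/v) were incubated with peptide at 200 μg/mL for 1 h at 37 °C with shaking. Supernatant OD was read at 540 nm after 8-fold dilution. Hemolysis is expressed as percent of the water control.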

[2] = test system: Escherichia coli ATCC 25922; conditions: ATCC 25922
Summary of the method: (§1)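 Activity is measured against peptides serially diluted two-fold in water with 0.002% final Polysorbate 80. The cells are in cation-adjusted MHII broth at roughly 5×10^5 CFU/mL, prepared from a 0.5 McFarland suspension in 0.85% NaCl.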

[3] = test system: Klebsiella pneumoniae SSI3010; conditions: SSI3010
Summary of the method: as §1

[4] = test system: Escherichia coli MCR-1 Af 45; conditions: MCR-1 Af 45
Summary of the method: as §1

| Structure (SMILES) | Hemolysis at 0.2 g/L [1] [%] | Escherichia coli ATCC 25922 MIC [2] [µg/mL] | Klebsiella pneumoniae SSI3010 MIC [3] [µg/mL] | Escherichia coli MCR-1 Af 45 MIC [4] [µg/mL] |
| --- | --- | --- | --- | --- |
| CC[C@H](C)[C@H](NC(=O)CN(CCN)C(=O)[C@@H](NC(=O)CNCCN)C(C)C)C(=O)N[C@H](C(=O)N[C@@H](Cc1ccc(O)cc1)C(=O)N[C@@H]1C(=O)N[C@@H](CC(N)=O)C(=O)N[C@@H](CCCNC(=N)N)C(=O)N[C@@H](CCN)C(=O)N[C@@H]([C@@H](C)O)C(=O)N[C@H](CCN)C(=O)N[C@@H](CCCCN)C(=O)N[C@H](C(=O)N[C@@H](CCN)C(=O)N[C@@H](CCCNC(=N)N)C(=O)N[C@@H](Cc2ccc(O)cc2)C(=O)O)CSSC1(C)C)[C@@H](C)CC [Example 29, Ndab-Val-Ndab-Ile-Ile-Tyr-Pen-Asn-Arg-Dab-Thr-^DDab-Lys-Cys-Dab-Arg-Tyr] (H-[Gly(N-2-aminoethyl)]V[Gly(N-2-aminoethyl)]IIY[Pen]NR[Dab]T[dDab]KC[Dab]RY-OH; disulfide 7-14) | 0 | 0.25 | 0.25 | 0.25 |
| CC[C@H](C)[C@H](NC(=O)[C@@H](NC(=O)[C@@H]1CCCN1C(=O)[C@@H](NC(=O)CNC)C(C)C)[C@@H](C)CC)C(=O)N[C@@H](Cc1ccc(O)cc1)C(=O)N[C@H]1CSSC[C@@H](C(=O)N[C@@H](CCN)C(=O)N[C@@H](CCCNC(=N)N)C(=O)N[C@@H](Cc2ccc(O)cc2)C(=O)O)NC(=O)[C@H](CCCCN)NC(=O)[C@@H](CCN)NC(=O)[C@H]([C@@H](C)O)NC(=O)[C@H](CCN)NC(=O)[C@H](CCCNC(=N)N)NC(=O)[C@H](CC(N)=O)NC1=O [Example 30] (HELM PEPTIDE1{[Sar].V.P.I.I.Y.C.N.R.[Dab].T.[NCC[C@@H](N[*:1])C(=O)[*:2]].K.C.[Dab].R.Y}$PEPTIDE1,PEPTIDE1,7:R3-14:R3$$$V2.0) | 0 | 0.125 | 0.25 | 0.125 |
| CC[C@H](C)[C@H](NC(=O)CN(CCCCN)C(=O)[C@@H](NC(=O)CNCCCCN)C(C)C)C(=O)N[C@H](C(=O)N[C@@H](Cc1ccc(O)cc1)C(=O)N[C@@H]1C(=O)N[C@@H](CC(N)=O)C(=O)N[C@@H](CCCNC(=N)N)C(=O)N[C@@H](CCN)C(=O)N[C@@H]([C@@H](C)O)C(=O)N[C@H](CCN)C(=O)N[C@@H](CCCCN)C(=O)N[C@H](C(=O)N[C@@H](CCN)C(=O)N[C@@H](CCCNC(=N)N)C(=O)N[C@@H](Cc2ccc(O)cc2)C(=O)O)CSSC1(C)C)[C@@H](C)CC [Example 31, Nlys-Val-Nlys-Ile-Ile-Tyr-Pen-Asn-Arg-Dab-Thr-^DDab-Lys-Cys-Dab-Arg-Tyr] (H-[Nlys]V[Nlys]IIY[Pen]NR[Dab]T[dDab]KC[Dab]RY-OH; disulfide 7-14) | 0 | 0.125 | 0.25 | 0.0625 |
| CC[C@H](C)[C@H](NC(=O)CN(CCCN)C(=O)[C@@H](NC(=O)CNCCCN)C(C)C)C(=O)N[C@H](C(=O)N[C@@H](Cc1ccc(O)cc1)C(=O)N[C@@H]1C(=O)N[C@@H](CC(N)=O)C(=O)N[C@@H](CCCNC(=N)N)C(=O)N[C@@H](CCN)C(=O)N[C@@H]([C@@H](C)O)C(=O)N[C@H](CCN)C(=O)N[C@@H](CCCCN)C(=O)N[C@H](C(=O)N[C@@H](CCN)C(=O)N[C@@H](CCCNC(=N)N)C(=O)N[C@@H](Cc2ccc(O)cc2)C(=O)O)CSSC1(C)C)[C@@H](C)CC [Example 32, Norn-Val-Norn-Ile-Ile-Tyr-Pen-Asn-Arg-Dab-Thr-^DDab-Lys-Cys-Dab-Arg-Tyr] (H-[Gly(N(CH2)3NH2)]V[Gly(N(CH2)3NH2)]IIY[Pen]NR[Dab]T[dDab]KC[Dab]RY-OH; disulfide 7-14) | 0 | 0.125 | 0.125 | 0.0625 |
